Results published in BindingDB's records for patent US10479784 (VERTEX PHARMACEUTICALS INCORPORATED, 2019).

Target: Serine/threonine-protein kinase ATR (Homo sapiens, UniProt Q13535)
Assay: Inhibition Assay
Protocol: Compounds were screened for their ability to inhibit ATR kinase using a radioactive-phosphate incorporation assay. Assays were carried out in a mixture of 50 mM Tris/HCl (pH 7.5), 10 mM MgCl2 and 1 mM DTT. Final substrate concentrations were […] (3mCi 33P ATP/mmol ATP, Perkin Elmer) and 800 μM target peptide ([…]).Assays were carried out at 25° C. in the presence of 5 nM full-length ATR. An assay stock buffer solution was prepared containing all of the reagents listed above, with the exception of ATP and the test compound of interest. […] The plate was pre-incubated for 10 minutes at 25° C. and the reaction initiated by addition of 15 μL [γ-33P]ATP (final concentration 10 μM).The reaction was stopped after […] by the addition of 30 μL 0.1M phosphoric acid containing 2 mM ATP. A multiscreen phosphocellulose filter 96-well plate (Millipore, Cat no. MAPHN0B50) was pretreated with 100 μL 0.2M phosphoric acid prior to the addition of 45 μL of the stopped assay mixture.

Chain of Serine/threonine-protein kinase ATR (Q13535 whole entry): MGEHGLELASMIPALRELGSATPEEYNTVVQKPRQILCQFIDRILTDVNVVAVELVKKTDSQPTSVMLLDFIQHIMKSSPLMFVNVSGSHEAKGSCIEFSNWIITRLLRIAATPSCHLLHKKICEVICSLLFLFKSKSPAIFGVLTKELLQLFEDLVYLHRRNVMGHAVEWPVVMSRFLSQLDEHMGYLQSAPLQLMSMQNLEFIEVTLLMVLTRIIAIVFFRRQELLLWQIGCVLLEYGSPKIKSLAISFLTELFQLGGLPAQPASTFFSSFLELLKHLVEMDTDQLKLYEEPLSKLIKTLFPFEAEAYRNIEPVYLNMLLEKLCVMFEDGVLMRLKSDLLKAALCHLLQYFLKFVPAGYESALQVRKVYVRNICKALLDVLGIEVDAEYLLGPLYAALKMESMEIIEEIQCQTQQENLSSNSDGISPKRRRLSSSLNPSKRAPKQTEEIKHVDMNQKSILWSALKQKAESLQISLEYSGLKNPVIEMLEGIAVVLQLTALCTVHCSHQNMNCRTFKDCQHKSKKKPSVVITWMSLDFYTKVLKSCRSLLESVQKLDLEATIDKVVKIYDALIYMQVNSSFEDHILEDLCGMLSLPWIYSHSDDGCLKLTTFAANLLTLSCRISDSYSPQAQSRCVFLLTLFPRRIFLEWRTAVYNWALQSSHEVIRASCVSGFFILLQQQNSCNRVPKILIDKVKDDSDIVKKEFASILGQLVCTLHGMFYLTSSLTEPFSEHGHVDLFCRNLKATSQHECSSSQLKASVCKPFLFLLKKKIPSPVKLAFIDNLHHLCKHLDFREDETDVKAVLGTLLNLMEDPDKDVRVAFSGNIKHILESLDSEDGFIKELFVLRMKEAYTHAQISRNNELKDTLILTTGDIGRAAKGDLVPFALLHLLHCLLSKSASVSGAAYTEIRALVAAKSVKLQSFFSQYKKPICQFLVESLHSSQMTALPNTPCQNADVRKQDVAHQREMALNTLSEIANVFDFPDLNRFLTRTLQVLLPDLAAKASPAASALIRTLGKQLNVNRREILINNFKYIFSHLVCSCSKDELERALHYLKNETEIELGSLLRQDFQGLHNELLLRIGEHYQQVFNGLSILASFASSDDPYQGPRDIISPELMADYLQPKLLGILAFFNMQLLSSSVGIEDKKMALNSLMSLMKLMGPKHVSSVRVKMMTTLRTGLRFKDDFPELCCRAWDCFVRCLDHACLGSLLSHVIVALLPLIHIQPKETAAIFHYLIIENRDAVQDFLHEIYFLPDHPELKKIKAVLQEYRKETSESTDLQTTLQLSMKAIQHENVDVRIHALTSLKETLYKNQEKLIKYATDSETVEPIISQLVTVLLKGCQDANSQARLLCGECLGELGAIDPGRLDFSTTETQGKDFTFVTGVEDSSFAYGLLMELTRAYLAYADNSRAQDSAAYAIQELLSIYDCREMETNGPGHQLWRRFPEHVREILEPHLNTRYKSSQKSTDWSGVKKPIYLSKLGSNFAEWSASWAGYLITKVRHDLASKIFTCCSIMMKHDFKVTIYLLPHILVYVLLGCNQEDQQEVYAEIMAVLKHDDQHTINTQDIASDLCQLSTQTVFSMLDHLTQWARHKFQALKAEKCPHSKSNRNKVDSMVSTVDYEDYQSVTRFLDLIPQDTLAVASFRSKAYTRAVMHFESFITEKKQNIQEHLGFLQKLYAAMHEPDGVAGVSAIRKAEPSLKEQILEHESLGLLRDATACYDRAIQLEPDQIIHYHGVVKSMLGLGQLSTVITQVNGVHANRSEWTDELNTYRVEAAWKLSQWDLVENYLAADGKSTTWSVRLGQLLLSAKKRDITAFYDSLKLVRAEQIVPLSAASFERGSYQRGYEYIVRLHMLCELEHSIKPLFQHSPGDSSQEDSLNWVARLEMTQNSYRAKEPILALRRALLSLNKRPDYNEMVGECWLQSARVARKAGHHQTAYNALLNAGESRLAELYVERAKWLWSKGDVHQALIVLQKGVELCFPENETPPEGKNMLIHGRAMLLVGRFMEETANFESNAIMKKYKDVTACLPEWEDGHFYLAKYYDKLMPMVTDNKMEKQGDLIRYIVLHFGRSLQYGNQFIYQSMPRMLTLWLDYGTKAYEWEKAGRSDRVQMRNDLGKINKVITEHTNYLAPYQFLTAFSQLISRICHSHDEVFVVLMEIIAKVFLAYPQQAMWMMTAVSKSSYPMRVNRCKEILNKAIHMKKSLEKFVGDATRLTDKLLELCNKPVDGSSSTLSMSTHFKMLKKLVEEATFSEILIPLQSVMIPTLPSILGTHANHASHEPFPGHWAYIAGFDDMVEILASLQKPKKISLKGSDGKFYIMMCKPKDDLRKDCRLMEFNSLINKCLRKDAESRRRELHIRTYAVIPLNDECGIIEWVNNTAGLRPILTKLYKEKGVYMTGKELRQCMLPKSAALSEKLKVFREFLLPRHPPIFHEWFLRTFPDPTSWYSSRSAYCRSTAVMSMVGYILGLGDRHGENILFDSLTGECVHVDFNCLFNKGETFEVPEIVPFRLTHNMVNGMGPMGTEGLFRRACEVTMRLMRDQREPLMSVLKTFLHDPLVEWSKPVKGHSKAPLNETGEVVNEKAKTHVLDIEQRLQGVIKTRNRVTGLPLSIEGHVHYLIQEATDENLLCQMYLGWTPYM

Ki	Compound
< 10 nM	CNCc1ccc(C(=N)OC(=N)c2nc(-c3ccc(S(=O)(=O)C(C)C)c(OC(F)(F)F)c3)cnc2N)cc1 [US10479784, Compound IA-290]
< 10 nM	CNCc1ccc(C(=N)OC(=N)c2nc(-c3ccc([S+]([O-])C(C)CCOC)cc3)cnc2N)c(F)c1 (configuration not stated) [US10479784, Compound IA-332]
